Test results published in ChEMBL document CHEMBL5346873, “Strategic modification of low-activity natural antimicrobial peptides confers antibacterial potential in vitro and in vivo” (Eur J Med Chem, 2023).
Activity calls are given as the source filed them. The calls are words filed in the database; no cut-off is given here.

Key:
[1] = system: Streptococcus iniae; test: Synergistic antibacterial activity against Streptococcus iniae assessed as fractional inhibitory concentration in presence of doxycycline by checkerboard microtiter plate assay; type: functional
[2] = system: Streptococcus iniae; test: Antibacterial activity against Streptococcus iniae incubated for 16 to 20 hrs; type: functional; settings: time 16-20 hrs
[3] = system: Enterococcus faecium; test: Antibacterial activity against Enterococcus faecium incubated for 16 to 20 hrs; type: functional; settings: time 16-20 hrs
[4] = system: Escherichia coli; test: Synergistic antibacterial activity against Escherichia coli assessed as meropenem MIC by checkerboard microtiter plate assay; type: functional
[5] = system: Vibrio vulnificus; test: Antibiofilm activity against Vibrio vulnificus V2 assessed as inhibition of biofilm formation at 25 to 100 ug/ml incubated for 24 hrs by crystal violet staining based assay; type: functional, organism-based; settings: dose 25-100 µg/ml
[6] = system: Klebsiella oxytoca; test: Bactericidal activity against Klebsiella oxytoca incubated overnight; type: functional
[7] = system: Staphylococcus aureus; test: Bactericidal activity against Staphylococcus aureus incubated for overnight; type: functional
[8] = system: Vibrio vulnificus; test: Bactericidal activity against Vibrio vulnificus V3 incubated overnight; type: functional
[9] = system: Klebsiella pneumoniae; test: Bactericidal activity against NDM Klebsiella pneumoniae incubated overnight; type: functional
[10] = system: Vibrio vulnificus; test: Antibacterial activity against Vibrio vulnificus V3 incubated for 16 to 20 hrs; type: functional; settings: time 16-20 hrs
[11] = Cytotoxicity against human HaCaT cells incubated for 24 hrs by LDH assay; type: toxicity, cell-based; settings: read-out: LD50
[12] = system: Acinetobacter baumannii; test: Synergistic antibacterial activity against Acinetobacter baumannii assessed as fractional inhibitory concentration in presence of doxycycline by checkerboard microtiter plate assay; type: functional
[13] = system: Salmonella enterica; test: Bactericidal activity against Salmonella enterica incubated overnight; type: functional
[14] = system: Vibrio alginolyticus; test: Bactericidal activity against Vibrio alginolyticus incubated overnight; type: functional
[15] = system: Staphylococcus haemolyticus; test: Antibacterial activity against Staphylococcus haemolyticus incubated for 16 to 20 hrs; type: functional; settings: time 16-20 hrs
[16] = system: Staphylococcus haemolyticus; test: Bactericidal activity against Staphylococcus haemolyticus incubated overnight; type: functional
[17] = system: Pseudomonas aeruginosa; test: Antibacterial activity against Pseudomonas aeruginosa incubated for 16 to 20 hrs; type: functional; settings: time 16-20 hrs
[18] = system: Acinetobacter baumannii; test: Additive antibacterial activity against Acinetobacter baumannii assessed as fractional inhibitory concentration in presence of meropenem by checkerboard microtiter plate assay; type: functional
[19] = system: Vibrio vulnificus; test: Antibacterial activity against Vibrio vulnificus 204 assessed as induction of resistance development by measuring fold increase in MIC measured after 15 passages; type: functional
[20] = system: Acinetobacter baumannii; test: Synergistic antibacterial activity against Acinetobacter baumannii in presence of doxycycline by checkerboard microtiter plate assay; type: functional
[21] = system: Streptococcus agalactiae; test: Synergistic antibacterial activity against Streptococcus agalactiae assessed as doxycycline MIC by checkerboard microtiter plate assay; type: functional
[22] = system: Vibrio vulnificus; test: Synergistic antibacterial activity against Vibrio vulnificus assessed as fractional inhibitory concentration in presence of doxycycline by checkerboard microtiter plate assay; type: functional
[23] = system: Salmonella typhimurium; test: Antibacterial activity against Salmonella typhimurium incubated for 16 to 20 hrs; type: functional, Salmonella enterica subsp. enterica serovar Typhimurium; settings: Salmonella enterica; time 16-20 hrs
[24] = system: Vibrio vulnificus; test: Antibiofilm activity against Vibrio vulnificus V3 assessed as inhibition of biofilm formation at 25 ug/ml incubated for 24 hrs by crystal violet staining based assay; type: functional, organism-based; settings: dose 25.0 µg/ml
[25] = system: Vibrio vulnificus; test: Antibacterial activity against Vibrio vulnificus in presence of 1 to 10 ug/ml pepsin; type: functional, organism-based
[26] = system: Vibrio vulnificus; test: Synergistic antibacterial activity against Vibrio vulnificus in presence of meropenem by checkerboard microtiter plate assay; type: functional
[27] = system: Vibrio vulnificus; test: Antibacterial activity against Vibrio vulnificus V2 incubated for 16 to 20 hrs; type: functional; settings: time 16-20 hrs
[28] = system: Klebsiella pneumoniae; test: Antibacterial activity against Klebsiella pneumoniae expressing NDM-1 in presence of human serum; type: functional, organism-based
[29] = system: Vibrio vulnificus; test: Antibiofilm activity against Vibrio vulnificus V3 assessed as inhibition of biofilm formation at 50 to 100 ug/ml incubated for 24 hrs by crystal violet staining based assay; type: functional, organism-based; settings: dose 50-100 µg/ml
[30] = system: Vibrio vulnificus; test: Antibacterial activity against Vibrio vulnificus in presence of 1 to 10 ug/ml trypsin; type: functional, organism-based
[31] = system: Klebsiella pneumoniae; test: Synergistic antibacterial activity against Klebsiella pneumoniae expressing NDM1 in presence of doxycycline by checkerboard microtiter plate assay; type: functional
[32] = system: Salmonella enterica; test: Antibacterial activity against Salmonella enterica incubated for 16 to 20 hrs; type: functional; settings: time 16-20 hrs
[33] = system: Acinetobacter baumannii; test: Antibacterial activity against Acinetobacter baumannii; type: functional
[34] = system: Vibrio vulnificus; test: Antibacterial activity against Vibrio vulnificus in presence of 10 ug/ml proteinase K; type: functional, organism-based
[35] = system: Klebsiella aerogenes; test: Antibacterial activity against Enterobacter aerogenes incubated for 16 to 20 hrs; type: functional; settings: time 16-20 hrs
[36] = system: Vibrio vulnificus; test: Synergistic antibacterial activity against Vibrio vulnificus assessed as meropenem MIC by checkerboard microtiter plate assay; type: functional
[37] = system: Vibrio vulnificus; test: Antibiofilm activity against Vibrio vulnificus V1 assessed as inhibition of biofilm formation at 25 ug/ml incubated for 24 hrs by crystal violet staining based assay; type: functional, organism-based; settings: dose 25.0 µg/ml
[38] = system: Klebsiella pneumoniae; test: Synergistic antibacterial activity against Klebsiella pneumoniae expressing NDM1 assessed as doxycycline MIC by checkerboard microtiter plate assay; type: functional
[39] = system: Streptococcus agalactiae; test: Antibacterial activity against Streptococcus agalactiae incubated for 16 to 20 hrs; type: functional; settings: time 16-20 hrs
[40] = system: Vibrio vulnificus; test: Antibacterial activity against Vibrio vulnificus in presence of proteinase K; type: functional, organism-based
[41] = system: Streptococcus iniae; test: Additive antibacterial activity against Streptococcus iniae assessed as fractional inhibitory concentration in presence of meropenem by checkerboard microtiter plate assay; type: functional
[42] = system: Enterococcus faecalis; test: Antibacterial activity against Enterococcus faecalis incubated for 16 to 20 hrs; type: functional; settings: time 16-20 hrs
[43] = system: Klebsiella aerogenes; test: Bactericidal activity against Enterobacter aerogenes incubated overnight; type: functional
[44] = system: Klebsiella aerogenes; test: Synergistic antibacterial activity against Enterobacter aerogenes assessed as meropenem MIC by checkerboard microtiter plate assay; type: functional
[45] = system: Aeromonas hydrophila; test: Bactericidal activity against Aeromonas hydrophila incubated overnight; type: functional
[46] = system: Vibrio vulnificus; test: Antibiofilm activity against Vibrio vulnificus 204 assessed as inhibition of biofilm formation at 50 to 100 ug/ml incubated for 24 hrs by crystal violet staining based assay; type: functional, organism-based; settings: dose 50-100 µg/ml
[47] = system: Acinetobacter baumannii; test: Additive antibacterial activity against Acinetobacter baumannii assessed as meropenem MIC by checkerboard microtiter plate assay; type: functional
[48] = system: Vibrio vulnificus; test: Synergistic antibacterial activity against Vibrio vulnificus assessed as fractional inhibitory concentration in presence of meropenem by checkerboard microtiter plate assay; type: functional
[49] = system: Vibrio vulnificus; test: Antibacterial activity against Vibrio vulnificus treated with preheated compounds; type: functional, organism-based
[50] = system: Vibrio harveyi; test: Antibacterial activity against Vibrio harveyi incubated for 16 to 20 hrs; type: functional; settings: time 16-20 hrs
[51] = system: Salmonella typhimurium; test: Bactericidal activity against Salmonella typhimurium incubated overnight; type: functional, Salmonella enterica subsp. enterica serovar Typhimurium; settings: Salmonella enterica
[52] = system: Cell membrane; test: Induction of membrane deformation in Vibrio vulnificus at 1 to 2 times MIC incubated for 30 mins by SEM analysis; type: subcellular
[53] = system: Streptococcus iniae; test: Bactericidal activity against Streptococcus iniae incubated overnight; type: functional
[54] = system: Streptococcus iniae; test: Additive antibacterial activity against Streptococcus iniae in presence of meropenem by checkerboard microtiter plate assay; type: functional
[55] = system: Klebsiella aerogenes; test: Synergistic antibacterial activity against Enterobacter aerogenes in presence of meropenem by checkerboard microtiter plate assay; type: functional
[56] = system: Escherichia coli; test: Antibacterial activity against Escherichia coli incubated for 16 to 20 hrs; type: functional; settings: time 16-20 hrs
[57] = system: Vibrio vulnificus; test: Bactericidal activity against Vibrio vulnificus V2 incubated overnight; type: functional
[58] = system: Streptococcus iniae; test: Additive antibacterial activity against Streptococcus iniae assessed as meropenem MIC by checkerboard microtiter plate assay; type: functional
[59] = system: Vibrio vulnificus; test: Antibacterial activity against Vibrio vulnificus in presence of 0.1 ug/ml pepsin; type: functional, organism-based
[60] = system: Cell membrane; test: Induction of outer membrane lysis in Vibrio vulnificus at 100 ug/ml by NPN-dye based fluorescence analysis; type: subcellular; settings: dose 100.0 µg/ml

H-FKWKSVLKGVKGFVKGYF-OH gave an FIC [1] of 0.04, an MIC [2] of under 1.56 µg/mL and an MIC [3] of 25 µg/mL. The MIC [4] was 0.001 µg/mL, the Activity [5] was “Active” and the MBC [6] was 25 µg/mL. The MBC [7] was 50 µg/mL, the MBC [8] was 12.5 µg/mL and the MBC [9] was 25 µg/mL. It also gave an MIC [10] of 12.5 µg/mL, a CC50 at 24 h [11] of over 100 µg/mL and an FIC [12] of 0.07. For the same substance, the MBC [13] was 12.5 µg/mL, the MBC [14] was 6.25 µg/mL and the MIC [15] was under 1.56 µg/mL. The MBC [16] was under 1.56 µg/mL, the MIC [17] was 25 µg/mL and the FIC [18] was 0.51. The “fold change (FC)” value [19] was under 2, the MIC [20] was 0.048 µg/mL and the MIC [21] was 0.006 µg/mL. For the same substance, the FIC [22] was 0.14, the MIC [23] was 12.5 µg/mL and the Activity [24] was “inactive”. For the same substance, the Activity [25] was “Active”, the MIC [26] was 0.097 µg/mL and the MIC [27] was 12.5 µg/mL. The Activity [28] was “Active”, the Activity [29] was “Active” and the Activity [30] was “Active”. It also gave an MIC [31] of 1.56 µg/mL, an MIC [32] of 12.5 µg/mL and an MIC [33] of 3.12 µg/mL. For the same substance, the Activity [34] was “inactive”, the MIC [35] was 12.5 µg/mL and the MIC [36] was 0.003 µg/mL. For the same substance, the Activity [37] was “inactive”, the MIC [38] was 1.56 µg/mL and the MIC [39] was 3.12 µg/mL. The Activity [40] was “Active”, the FIC [41] was 0.51 and the MIC [42] was 50 µg/mL. For the same substance, the MBC [43] was 12.5 µg/mL, the MIC [44] was 0.003 µg/mL and the MBC [45] was over 100 µg/mL. The Activity [46] was “Active”, the MIC [47] was 0.195 µg/mL and the FIC [48] was 0.14. The Activity [49] was “Active”, the MIC [50] was over 100 µg/mL and the MBC [51] was 12.5 µg/mL. The Activity [52] was “Active”, the MBC [53] was under 1.56 µg/mL and the MIC [54] was 0.024 µg/mL. It also gave an MIC [55] of 0.195 µg/mL, an MIC [56] of 6.25 µg/mL and an MBC [57] of 12.5 µg/mL. The MIC [58] was 0.195 µg/mL, the Activity [59] was “Active” and the Activity [60] was “Active”.
